The CheMixHub viscosity set
± gives the uncertainty stated by the source.

Experiment: xn = mol fraction of the nth substance listed

SMILES: Cc1ccccn1 + Brc1ccccc1
- viscosity (293.15 K, 101 kPa, x1 = 0.2): 1.072 ± 0.018 mPa·s
- viscosity (293.15 K, 101 kPa, x1 = 0.4): 1.016 ± 0.017 mPa·s
- viscosity (293.15 K, 101 kPa, x1 = 0.6): 0.954 ± 0.016 mPa·s
- viscosity (293.15 K, 101 kPa, x1 = 0.8): 0.885 ± 0.015 mPa·s
- viscosity (313.15 K, 101 kPa, x1 = 0.2): 0.833 ± 0.014 mPa·s
- viscosity (313.15 K, 101 kPa, x1 = 0.4): 0.785 ± 0.014 mPa·s
- viscosity (313.15 K, 101 kPa, x1 = 0.6): 0.736 ± 0.013 mPa·s
- viscosity (313.15 K, 101 kPa, x1 = 0.8): 0.684 ± 0.012 mPa·s

SMILES: ClC=C(Cl)Cl + C1CCOC1
- viscosity (303.15 K, 101 kPa, x2 = 0.0614): 0.5484 ± 0.0046 mPa·s
- viscosity (303.15 K, 101 kPa, x2 = 0.1057): 0.5631 ± 0.0047 mPa·s
- viscosity (303.15 K, 101 kPa, x2 = 0.2281): 0.5879 ± 0.0049 mPa·s
- viscosity (303.15 K, 101 kPa, x2 = 0.3529): 0.5932 ± 0.005 mPa·s
- viscosity (303.15 K, 101 kPa, x2 = 0.4929): 0.5817 ± 0.0049 mPa·s
- viscosity (303.15 K, 101 kPa, x2 = 0.5166): 0.5781 ± 0.0049 mPa·s
- viscosity (303.15 K, 101 kPa, x2 = 0.64): 0.556 ± 0.0047 mPa·s
- viscosity (303.15 K, 101 kPa, x2 = 0.7608): 0.5289 ± 0.0045 mPa·s
- viscosity (303.15 K, 101 kPa, x2 = 0.8813): 0.4983 ± 0.0043 mPa·s
- viscosity (303.15 K, 101 kPa, x2 = 0.9421): 0.4822 ± 0.0042 mPa·s

SMILES: ClC=C(Cl)Cl + C1COCCO1
- viscosity (298.15 K, 101.33 kPa, x1 = 0.1027): 1.036 ± 0.017 mPa·s
- viscosity (298.15 K, 101.33 kPa, x1 = 0.2015): 0.963 ± 0.016 mPa·s
- viscosity (298.15 K, 101.33 kPa, x1 = 0.3002): 0.909 ± 0.014 mPa·s
- viscosity (298.15 K, 101.33 kPa, x1 = 0.409): 0.854 ± 0.013 mPa·s
- viscosity (298.15 K, 101.33 kPa, x1 = 0.502): 0.814 ± 0.012 mPa·s
- viscosity (298.15 K, 101.33 kPa, x1 = 0.6078): 0.767 ± 0.011 mPa·s
- viscosity (298.15 K, 101.33 kPa, x1 = 0.6921): 0.732 ± 0.01 mPa·s
- viscosity (298.15 K, 101.33 kPa, x1 = 0.8076): 0.685 ± 0.009 mPa·s
- viscosity (298.15 K, 101.33 kPa, x1 = 0.9058): 0.649 ± 0.009 mPa·s
- viscosity (303.15 K, 101.33 kPa, x2 = 0.0577): 0.5863 ± 0.0044 mPa·s
- viscosity (303.15 K, 101.33 kPa, x2 = 0.1189): 0.6434 ± 0.0048 mPa·s
- viscosity (303.15 K, 101.33 kPa, x2 = 0.289): 0.7496 ± 0.0055 mPa·s
- viscosity (303.15 K, 101.33 kPa, x2 = 0.3696): 0.7787 ± 0.0057 mPa·s
- viscosity (303.15 K, 101.33 kPa, x2 = 0.4012): 0.7885 ± 0.0058 mPa·s
- viscosity (303.15 K, 101.33 kPa, x2 = 0.5728): 0.837 ± 0.0061 mPa·s
- viscosity (303.15 K, 101.33 kPa, x2 = 0.6186): 0.8515 ± 0.0062 mPa·s
- viscosity (303.15 K, 101.33 kPa, x2 = 0.7841): 0.9264 ± 0.0067 mPa·s
- viscosity (303.15 K, 101.33 kPa, x2 = 0.892): 0.9979 ± 0.0072 mPa·s
- viscosity (303.15 K, 101.33 kPa, x2 = 0.9513): 1.045 ± 0.0075 mPa·s
- viscosity (308.15 K, 101.33 kPa, x1 = 0.1027): 0.907 ± 0.015 mPa·s
- viscosity (308.15 K, 101.33 kPa, x1 = 0.2015): 0.852 ± 0.014 mPa·s
- viscosity (308.15 K, 101.33 kPa, x1 = 0.3002): 0.804 ± 0.013 mPa·s
- viscosity (308.15 K, 101.33 kPa, x1 = 0.409): 0.757 ± 0.012 mPa·s
- viscosity (308.15 K, 101.33 kPa, x1 = 0.502): 0.727 ± 0.011 mPa·s
- viscosity (308.15 K, 101.33 kPa, x1 = 0.6078): 0.693 ± 0.01 mPa·s
- viscosity (308.15 K, 101.33 kPa, x1 = 0.6921): 0.67 ± 0.009 mPa·s
- viscosity (308.15 K, 101.33 kPa, x1 = 0.8076): 0.64 ± 0.009 mPa·s
- viscosity (308.15 K, 101.33 kPa, x1 = 0.9058): 0.613 ± 0.008 mPa·s
- viscosity (318.15 K, 101.33 kPa, x1 = 0.1027): 0.815 ± 0.013 mPa·s
- viscosity (318.15 K, 101.33 kPa, x1 = 0.2015): 0.764 ± 0.012 mPa·s
- viscosity (318.15 K, 101.33 kPa, x1 = 0.3002): 0.726 ± 0.011 mPa·s
- viscosity (318.15 K, 101.33 kPa, x1 = 0.409): 0.69 ± 0.011 mPa·s
- viscosity (318.15 K, 101.33 kPa, x1 = 0.502): 0.673 ± 0.01 mPa·s
- viscosity (318.15 K, 101.33 kPa, x1 = 0.6078): 0.653 ± 0.009 mPa·s
- viscosity (318.15 K, 101.33 kPa, x1 = 0.6921): 0.635 ± 0.009 mPa·s
- viscosity (318.15 K, 101.33 kPa, x1 = 0.8076): 0.605 ± 0.008 mPa·s
- viscosity (318.15 K, 101.33 kPa, x1 = 0.9058): 0.586 ± 0.008 mPa·s

SMILES: NC1CCCCC1 + C1COCO1
- viscosity (298.15 K, 101 kPa, x2 = 0.1295): 1.517 ± 0.012 mPa·s
- viscosity (298.15 K, 101 kPa, x2 = 0.2508): 1.331 ± 0.01 mPa·s
- viscosity (298.15 K, 101 kPa, x2 = 0.3646): 1.174 ± 0.0093 mPa·s
- viscosity (298.15 K, 101 kPa, x2 = 0.4716): 1.044 ± 0.0084 mPa·s
- viscosity (298.15 K, 101 kPa, x2 = 0.5724): 0.9345 ± 0.0076 mPa·s
- viscosity (298.15 K, 101 kPa, x2 = 0.6676): 0.8431 ± 0.007 mPa·s
- viscosity (298.15 K, 101 kPa, x2 = 0.7575): 0.7633 ± 0.0064 mPa·s
- viscosity (298.15 K, 101 kPa, x2 = 0.8427): 0.6955 ± 0.0059 mPa·s
- viscosity (298.15 K, 101 kPa, x2 = 0.9234): 0.6344 ± 0.0055 mPa·s

SMILES: CC(O)CO (stereo unspecified) + CC#N
- viscosity (293.15 K, 100 kPa, x2 = 0.1127): 31.4 ± 6.3 mPa·s
- viscosity (293.15 K, 100 kPa, x2 = 0.2): 20.3 ± 4.1 mPa·s
- viscosity (293.15 K, 100 kPa, x2 = 0.3055): 12.2 ± 2.4 mPa·s
- viscosity (293.15 K, 100 kPa, x2 = 0.4021): 7.53 ± 1.5 mPa·s
- viscosity (293.15 K, 100 kPa, x2 = 0.5008): 4.71 ± 0.94 mPa·s
- viscosity (293.15 K, 100 kPa, x2 = 0.5989): 2.9 ± 0.58 mPa·s
- viscosity (293.15 K, 100 kPa, x2 = 0.6987): 1.82 ± 0.36 mPa·s
- viscosity (293.15 K, 100 kPa, x2 = 0.7958): 1.1 ± 0.22 mPa·s
- viscosity (293.15 K, 100 kPa, x2 = 0.8961): 0.66 ± 0.13 mPa·s
- viscosity (298.15 K, 100 kPa, x2 = 0.1127): 25.4 ± 5.1 mPa·s
- viscosity (298.15 K, 100 kPa, x2 = 0.2): 16.9 ± 3.4 mPa·s
- viscosity (298.15 K, 100 kPa, x2 = 0.3055): 10.3 ± 2.1 mPa·s
- viscosity (298.15 K, 100 kPa, x2 = 0.4021): 6.21 ± 1.2 mPa·s
- viscosity (298.15 K, 100 kPa, x2 = 0.5008): 4.02 ± 0.81 mPa·s
- viscosity (298.15 K, 100 kPa, x2 = 0.5989): 2.42 ± 0.49 mPa·s
- viscosity (298.15 K, 100 kPa, x2 = 0.6987): 1.57 ± 0.31 mPa·s
- viscosity (298.15 K, 100 kPa, x2 = 0.7958): 0.97 ± 0.19 mPa·s
- viscosity (298.15 K, 100 kPa, x2 = 0.8961): 0.59 ± 0.12 mPa·s
- viscosity (303.15 K, 100 kPa, x2 = 0.1127): 20.8 ± 4.2 mPa·s
- viscosity (303.15 K, 100 kPa, x2 = 0.2): 13.8 ± 2.8 mPa·s
- viscosity (303.15 K, 100 kPa, x2 = 0.3055): 8.68 ± 1.7 mPa·s
- viscosity (303.15 K, 100 kPa, x2 = 0.4021): 5.48 ± 1.1 mPa·s
- viscosity (303.15 K, 100 kPa, x2 = 0.5008): 3.52 ± 0.71 mPa·s
- viscosity (303.15 K, 100 kPa, x2 = 0.5989): 2.25 ± 0.45 mPa·s
- viscosity (303.15 K, 100 kPa, x2 = 0.6987): 1.4 ± 0.28 mPa·s
- viscosity (303.15 K, 100 kPa, x2 = 0.7958): 0.87 ± 0.17 mPa·s
- viscosity (303.15 K, 100 kPa, x2 = 0.8961): 0.53 ± 0.11 mPa·s
